Data as given in the NIST ThermoML archive (doi:10.1021/je700644s).

Columns and labels:
[1] = Crystal; visual observation
[2] = molar heat capacity at constant pressure; conditions: 101.33 kPa, Crystal

N[C@@H](Cc1ccc(O)c(O)c1)C(=O)O [L-3,4-dihydroxyphenylalanine]
Conditions	Normal melting temperature [°C]
[1]	277.00

[2]
Conditions	molar heat capacity at constant pressure [J/K/mol]
78.47 K	71.34
79.83 K	72.35
81.49 K	73.75
83 K	75.18
84.82 K	76.68
86.63 K	78.19
88.44 K	79.6
89.94 K	80.73
91.35 K	82.27
93.06 K	83.62
94.81 K	84.79
97.14 K	86.2
98.89 K	87.89
100.72 K	89.28
102.64 K	90.78
104.71 K	92.24
106.74 K	93.97
108.74 K	95.89
110.71 K	97.8
112.66 K	99.36
114.58 K	101.07
116.47 K	103
118.5 K	104.72
120.65 K	106.43
122.77 K	108.44
124.86 K	110.39
126.96 K	112.16
129.01 K	113.95
131.02 K	115.5
133.03 K	117.12
135.03 K	118.6
136.99 K	120.14
138.96 K	121.84
140.87 K	123.73
142.78 K	125.45
144.7 K	127.02
146.71 K	128.82
148.67 K	130.53
150.67 K	132.25
152.73 K	133.85
154.83 K	135.87
156.88 K	137.96
158.94 K	139.53
160.94 K	141.56
162.95 K	143.5
164.96 K	144.99
166.92 K	146.4
168.93 K	148.17
170.89 K	150.21
172.8 K	151.86
174.76 K	153.4
176.68 K	155.02
178.59 K	156.36
180.49 K	157.89
182.37 K	159.54
184.4 K	161.1
186.39 K	162.67
188.35 K	164.31
190.45 K	165.92
192.51 K	167.41
194.57 K	169.47
196.6 K	171.19
198.74 K	173.02
200.73 K	174.55
202.72 K	176.35
204.75 K	178.18
206.74 K	179.9
208.73 K	181.7
210.72 K	183.49
212.57 K	185.1
214.57 K	186.74
216.49 K	188.38
218.41 K	190.07
220.37 K	191.82
222.25 K	193.7
224.06 K	195.34
226.73 K	197.52
229.58 K	199.77
232.56 K	202.63
235.59 K	205.29
238.77 K	207.95
241.76 K	210.58
244.74 K	212.99
247.73 K	215.37
250.77 K	218.1
253.75 K	220.62
256.74 K	223
259.76 K	225.81
262.77 K	228.18
265.75 K	230.91
268.6 K	233.5
271.68 K	236.23
274.76 K	239.03
277.82 K	242.01
280.88 K	244.64
283.92 K	247.23
286.95 K	249.5
289.94 K	252.13
292.92 K	255.42
295.76 K	258.06
298.79 K	261
301.77 K	263.53
304.66 K	266.35
307.79 K	269.29
310.97 K	272.35
313.95 K	275.23
317.08 K	278.06
320.26 K	281.06
323.2 K	284.12
325.79 K	286.4
328.38 K	288.56
331.07 K	291.45
333.76 K	293.85
336.37 K	296.31
338.98 K	299.04
341.74 K	301.82
344.65 K	304.77
347.41 K	307.5
350.17 K	309.96
352.94 K	312.58
355.85 K	315.2
358.46 K	317.71
361.22 K	320.33
363.98 K	323.17
366.59 K	325.79
369.35 K	328.08
372.11 K	330.75
374.87 K	333.1
377.49 K	335.94
380.09 K	338.83
382.85 K	341.72
385.61 K	344.62
388.83 K	347.29
391.44 K	350.03
394.35 K	352.91
396.81 K	355.28
399.26 K	357.83
